Data on two molecules can be found in patent US20070259872A1, “Inhibitors of soluble adenylate cyclase” (priority 2006, published 2007).

The target of this assay is soluble, sperm-specific adenylate cyclase (sAC) (Homo sapiens, UniProt Q96PN6). Description: sAC-Assay (HTRF cAMP detection). The class given is biochemical. The conditions noted are these: read-out: IC50 (inhibition of the soluble adenylate cyclase). An excerpt: In a suitable buffer system, the soluble, sperm-specific adenylate cyclase catalyzes the reaction of adenosine triphosphate (ATP) to cyclic adenosine monophosphate (cAMP) and pyrophosphate. Free cAMP that is generated in this way is then used in a competitive detection process, in which the binding of a europium kryptate (Eu[K])-labeled anti-cAMP antibody (anti cAMP-Eu[K]-AK) to a cAMP-molecule-labeled, modified allophycocyanine-1 molecule (cAMP-XL665) is prevented. In the absence of exogenic cAMP, after excitation at 335 nm, it results in a fluorescence resonance energy transfer (FRET) between the anti cAMP-Eu[K]-AK (FRET-donor) and the cAMP-XL665 molecule (FRET-acceptor). This process is quantified at different times (time-resolved) based on the emission of FRET-acceptor XL665 (665 nm and 620 nm). A signal drop (measured as a wave ratio; calculation formula: [(E665 nm/E620 nm)×10000]) can be attributed to the presence of cAMP and thus to the activity of sAC.
First, 1.5 μl of the test substance (in 30% DMSO), only 30% DMSO in the solvent controls, is introduced per recess in a 384-hole test plate (polystyrene; 384, NV). […]
After an additional incubation of 90 minutes at room temperature, the HTRF result is measured either on the Packard Discovery or with the RubiStar HTRF measuring device (Delay: 50 μs; Integration time: 400 μs).

soluble, sperm-specific adenylate cyclase (sAC), sequence (Q96PN6 whole entry): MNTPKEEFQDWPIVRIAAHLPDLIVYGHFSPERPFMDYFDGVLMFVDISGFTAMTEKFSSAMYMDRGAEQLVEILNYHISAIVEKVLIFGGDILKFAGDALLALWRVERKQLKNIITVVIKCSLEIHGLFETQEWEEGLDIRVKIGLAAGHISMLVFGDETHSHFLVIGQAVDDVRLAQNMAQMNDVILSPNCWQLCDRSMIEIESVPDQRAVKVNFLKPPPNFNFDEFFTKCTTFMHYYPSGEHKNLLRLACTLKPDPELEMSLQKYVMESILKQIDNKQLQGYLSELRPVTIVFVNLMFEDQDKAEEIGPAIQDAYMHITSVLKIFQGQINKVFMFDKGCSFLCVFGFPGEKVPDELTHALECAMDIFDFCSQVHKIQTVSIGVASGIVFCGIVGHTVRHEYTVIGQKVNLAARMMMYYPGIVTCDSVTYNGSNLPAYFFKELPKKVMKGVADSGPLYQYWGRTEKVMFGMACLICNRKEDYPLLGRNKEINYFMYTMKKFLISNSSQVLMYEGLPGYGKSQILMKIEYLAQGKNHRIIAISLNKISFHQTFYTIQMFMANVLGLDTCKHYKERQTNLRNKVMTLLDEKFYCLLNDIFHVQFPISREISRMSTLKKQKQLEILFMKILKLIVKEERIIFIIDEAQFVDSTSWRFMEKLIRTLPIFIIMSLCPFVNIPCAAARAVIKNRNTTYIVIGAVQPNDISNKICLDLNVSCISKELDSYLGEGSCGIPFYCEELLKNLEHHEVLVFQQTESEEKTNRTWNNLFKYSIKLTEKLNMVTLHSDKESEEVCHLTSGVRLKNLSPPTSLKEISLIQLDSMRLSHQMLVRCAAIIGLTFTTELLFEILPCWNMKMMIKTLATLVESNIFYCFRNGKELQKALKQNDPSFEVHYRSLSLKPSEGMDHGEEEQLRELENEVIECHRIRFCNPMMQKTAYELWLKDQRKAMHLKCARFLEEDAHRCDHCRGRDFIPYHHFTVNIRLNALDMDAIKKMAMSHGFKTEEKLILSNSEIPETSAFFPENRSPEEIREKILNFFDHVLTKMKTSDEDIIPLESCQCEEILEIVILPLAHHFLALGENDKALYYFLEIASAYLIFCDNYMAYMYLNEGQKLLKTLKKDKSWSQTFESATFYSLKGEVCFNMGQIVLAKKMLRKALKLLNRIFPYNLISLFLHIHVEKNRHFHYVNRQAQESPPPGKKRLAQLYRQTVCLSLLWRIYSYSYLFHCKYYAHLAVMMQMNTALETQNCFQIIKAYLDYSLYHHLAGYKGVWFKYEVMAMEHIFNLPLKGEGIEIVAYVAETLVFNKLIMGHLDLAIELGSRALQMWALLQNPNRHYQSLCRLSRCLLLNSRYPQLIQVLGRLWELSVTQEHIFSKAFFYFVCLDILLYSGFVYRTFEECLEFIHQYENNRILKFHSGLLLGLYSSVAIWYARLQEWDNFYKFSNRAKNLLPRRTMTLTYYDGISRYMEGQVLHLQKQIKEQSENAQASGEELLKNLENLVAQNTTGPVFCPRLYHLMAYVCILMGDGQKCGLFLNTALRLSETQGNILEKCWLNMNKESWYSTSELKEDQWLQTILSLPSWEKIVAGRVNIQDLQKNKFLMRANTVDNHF

As a reminder, the IC50 is the concentration needed to halve the response being measured. As for `CC(C)(C)c1ccc(NS(=O)(=O)c2ccc3[nH]c(C(=O)NC4CCOCC4)c(-c4ccccc4)c3c2)cc1`, the IC50 was found to be 3000 nM.
The value for `CC(O)CNC(=O)c1[nH]c2ccc(S(=O)(=O)Nc3ccc(C(C)(C)C)cc3)cc2c1-c1ccccc1` (racemic) was 1600 nM.
